Test results: PubChem BioAssay AID248 (DTP/NCI, 2004)
Several values for one entry are separate records, joined by “and”; a condition that tells them apart may be missing. Identical values can stand only once. Inconclusive results and toxic doses are left out. Peptide text beside a SMILES is read from it. * marks the point of attachment. Cbz = O=C(OCc1ccccc1)*; Bn = c1ccc(C*)cc1

Test system: L1210 leukemia ip in BDF1 mice, survival T/C
Assay: NCI In Vivo Anticancer Drug Screen. Data for tumor model L1210 Leukemia (intraperitoneal) in B6D2F1 (BDF1) mice
Details: endpoint: mean survival time, higher = longer survival
In short: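 Value reflects the ratio of survival in compound-treated mice to survival in vehicle-treated controls, with both groups carrying the same transplanted tumor.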

[1] = dose: 100.0 mg/kg/injection, schedule: Q01DX009 (ip), vehicle: Klucel (hydroxypropylcellulose) (HPC)
[2] = dose: 200.0 mg/kg/injection, schedule: Q01DX009 (ip), vehicle: Klucel (hydroxypropylcellulose) (HPC)
[3] = dose: 400.0 mg/kg/injection, schedule: Q01DX009 (ip), vehicle: Klucel (hydroxypropylcellulose) (HPC)
[4] = dose: 100.0 mg/kg/injection, schedule: Q01DX001 (ip), vehicle: saline
[5] = dose: 200.0 mg/kg/injection, schedule: Q01DX001 (ip), vehicle: saline
[6] = dose: 100.0 mg/kg/injection, schedule: Q01DX001 (ip), vehicle: other
[7] = dose: 200.0 mg/kg/injection, schedule: Q01DX001 (ip), vehicle: other
[8] = dose: 100.0 mg/kg/injection, schedule: Q01DX009 (ip), vehicle: saline with Tween-80
[9] = dose: 100.0 mg/kg/injection, schedule: Q04DX003 (ip), vehicle: saline with Tween-80
[10] = dose: 200.0 mg/kg/injection, schedule: Q01DX009 (ip), vehicle: saline with Tween-80
[11] = dose: 200.0 mg/kg/injection, schedule: Q04DX003 (ip), vehicle: saline with Tween-80
[12] = dose: 400.0 mg/kg/injection, schedule: Q01DX009 (ip), vehicle: saline with Tween-80
[13] = dose: 400.0 mg/kg/injection, schedule: Q04DX003 (ip), vehicle: saline with Tween-80
[14] = dose: 50.0 mg/kg/injection, schedule: Q01DX009 (ip), vehicle: Klucel (hydroxypropylcellulose) (HPC)
[15] = dose: 400.0 mg/kg/injection, schedule: Q01DX001 (ip), vehicle: saline

For `C1CCC(C2CCCC[N-]2)[N-]C1.C1CCC(C2CCCC[N-]2)[N-]C1.C1CCC(C2CCCC[N-]2)[N-]C1.[Fe+6]` (configuration not stated), the T/C (dose: 10.0 mg/kg/injection, schedule: Q01DX001 (ip), vehicle: saline) was 98 % of control and the T/C (dose: 20.0 mg/kg/injection, schedule: Q01DX001 (ip), vehicle: saline) was 104 % of control.

`CC(C)Oc1c(NCCO)c2cc(Cl)ccc2oc1=O` was tested, and the T/C (dose: 100.0 mg/kg/injection, schedule: Q04DX002 (ip), vehicle: Klucel (hydroxypropylcellulose) (HPC)) was 103 % of control, the T/C (dose: 200.0 mg/kg/injection, schedule: Q04DX002 (ip), vehicle: Klucel (hydroxypropylcellulose) (HPC)) was 106 % of control and the T/C (dose: 400.0 mg/kg/injection, schedule: Q04DX002 (ip), vehicle: Klucel (hydroxypropylcellulose) (HPC)) was 106 % of control.

`C=C1C(=O)OC2C3=C(C)C(=O)CC3C3(C)CC3C12` (configuration not stated) was tested, and the T/C (dose: 50.0 mg/kg/injection, schedule: Q01DX001 (ip), vehicle: water) was 103 % of control.

For `N#Cc1ccc(C(=O)C=C(C(F)(F)F)C(F)(F)F)cc1`, the T/C (dose: 6.25 mg/kg/injection, schedule: Q01DX009 (ip), vehicle: other) was 95 % of control and the T/C (dose: 12.5 mg/kg/injection, schedule: Q01DX009 (ip), vehicle: other) was 98 % of control.

`[NH-]C(CC(N)=O)C(=O)O.[NH-]C(CC(N)=O)C(=O)O.[Zn+2]` (configuration not stated) was tested, and the T/C (dose: 25.0 mg/kg/injection, schedule: Q04DX002 (ip), vehicle: saline) was 92 % of control and the T/C (dose: 50.0 mg/kg/injection, schedule: Q04DX002 (ip), vehicle: saline) was 116 % of control.

`CCCCC(CC)COC(=O)CCC(CCC(=O)OCC(CC)CCCC)C(=O)OCC(CC)CCCC` (configuration not stated) was tested, and the T/C (dose: 100.0 mg/kg/injection, schedule: Q04DX003 (ip), vehicle: saline sonified) was 98 % of control, the T/C (dose: 200.0 mg/kg/injection, schedule: Q04DX003 (ip), vehicle: saline sonified) was 104 % of control and the T/C (dose: 400.0 mg/kg/injection, schedule: Q04DX003 (ip), vehicle: saline sonified) was 96 % of control.

With `COc1cccc(NC(=O)Nc2cccc(C(F)(F)F)c2)c1` the T/C [1] was 96 % of control, the T/C [2] was 101 % of control and the T/C [3] was 101 % of control.

`CC(=O)OCCC[P+](c1ccccc1)(c1ccccc1)c1ccccc1` was tested, and the T/C [4] was 102 % of control and the T/C [5] was 110 % of control.

In the case of `CC(=O)Nc1nc(Cl)c([N+](=O)[O-])c(Cl)n1`, the T/C (dose: 3.12 mg/kg/injection, schedule: Q04DX002 (ip), vehicle: Klucel (hydroxypropylcellulose) (HPC)) was 103 % of control, the T/C (dose: 6.25 mg/kg/injection, schedule: Q04DX002 (ip), vehicle: Klucel (hydroxypropylcellulose) (HPC)) was 100 % of control and the T/C (dose: 12.5 mg/kg/injection, schedule: Q01DX001 (ip), vehicle: Klucel (hydroxypropylcellulose) (HPC)) was 92 % of control. For the same compound, the T/C (dose: 12.5 mg/kg/injection, schedule: Q04DX002 (ip), vehicle: Klucel (hydroxypropylcellulose) (HPC)) was 103 % of control.

In the case of `Cc1nc2[nH]cnc(=S)c2[nH]1`, the T/C [6] was 107 % of control and the T/C [7] was 103 % of control.

With `O=C(ON(Cc1ccccc1)Cc1ccccc1)c1ccccc1` the T/C [6] was 103 % of control, the T/C [7] was 100 % of control and the T/C (dose: 400.0 mg/kg/injection, schedule: Q01DX001 (ip), vehicle: other) was 103 % of control.

For `O=C1Nc2ccccc2/C1=N/N=C/c1cc(Cl)cc(Cl)c1O`, the T/C [8] was 90 % of control, the T/C [9] was 90 % of control and the T/C [10] was 92 % of control. The T/C [11] was 90 % of control, the T/C [12] was 91 % of control and the T/C [13] was 91 % of control.

For `CCOC(=O)/C(Cc1cnc2ccccc2n1)=N\O`, the T/C [8] was 94 % of control, the T/C [9] was 105 % of control and the T/C [10] was 96 % of control. For the same compound, the T/C [11] was 100 % of control, the T/C [12] was 100 % of control and the T/C [13] was 105 % of control.

In the case of `Nc1nc(N)n(Cc2ccc3c(c2)OCO3)n1`, the T/C (dose: 100.0 mg/kg/injection, schedule: Q01DX001 (ip), vehicle: saline with Tween-80) was 106 % of control, the T/C [9] was 104 % of control and the T/C (dose: 200.0 mg/kg/injection, schedule: Q01DX001 (ip), vehicle: saline with Tween-80) was 104 % of control. The T/C [10] was 87 % of control, the T/C [11] was 101 % of control and the T/C (dose: 400.0 mg/kg/injection, schedule: Q01DX001 (ip), vehicle: saline with Tween-80) was 108 % of control. The T/C [12] was 101 % of control and the T/C [13] was 102 % of control.

With `COC(=O)C/C(=N\NC(=O)c1ccccc1)C(=O)OC` the T/C [14] was 98 % of control, the T/C [1] was 93 % of control and the T/C [2] was 98 % of control. The T/C [3] was 93 % of control.

In the case of `N=C(N)Sc1n[nH]c(=O)[nH]c1=O`, the T/C (dose: 75.0 mg/kg/injection, schedule: Q01DX001 (ip), vehicle: alcohol) was 100 % of control and the T/C (dose: 150.0 mg/kg/injection, schedule: Q01DX001 (ip), vehicle: alcohol) was 90 % of control.

For `CN(Cc1cnc2nc(N)nc(N)c2n1)c1cc(Cl)c(C(=O)NC(CCC(=O)O)C(=O)O)c(Cl)c1` (configuration not stated), the T/C (dose: 25.0 mg/kg/injection, schedule: Q01DX009 (ip), vehicle: sodium bicarbonate) was 106 % of control, the T/C (dose: 50.0 mg/kg/injection, schedule: Q01DX009 (ip), vehicle: sodium bicarbonate) was 107 % of control and the T/C (dose: 100.0 mg/kg/injection, schedule: Q01DX009 (ip), vehicle: sodium bicarbonate) was 622 % of control. For the same compound, the T/C (dose: 200.0 mg/kg/injection, schedule: Q01DX009 (ip), vehicle: sodium bicarbonate) was 120 % of control.

`Cc1cccc(C2=CCCCC2)c1` was tested, and the T/C (dose: 50.0 mg/kg/injection, schedule: Q01DX001 (ip), vehicle: carboxymethylcellulose (CMC)) was 96 % of control, the T/C (dose: 100.0 mg/kg/injection, schedule: Q01DX001 (ip), vehicle: carboxymethylcellulose (CMC)) was 102 % of control and the T/C (dose: 200.0 mg/kg/injection, schedule: Q01DX001 (ip), vehicle: carboxymethylcellulose (CMC)) was 96 % of control.

In the case of `CCCCCC/C(C)=N/Nc1ccc([N+](=O)[O-])cc1[N+](=O)[O-]`, the T/C [4] was 93 % of control, the T/C [5] was 102 % of control and the T/C [15] was 100 % of control.

In the case of `CCCCCCCCCCCC(=O)N/N=C(\C)c1cccc2ccccc12`, the T/C (dose: 25.0 mg/kg/injection, schedule: Q01DX009 (ip), vehicle: Klucel (hydroxypropylcellulose) (HPC)) was 92 % of control, the T/C [14] was 96 % of control and the T/C [1] was 88 % of control and 92 % of control.

`CCCOP(=S)(NCCOC)OCCC` was tested, and the T/C [8] was 97 % of control, the T/C [10] was 100 % of control and the T/C [12] was 89 % of control.

In the case of `O=C(Cc1ccc2c(c1)OCO2)c1cn(C(=O)Cc2ccc3c(c2)OCO3)c2ccccc12`, the T/C (dose: 50.0 mg/kg/injection, schedule: Q01DX001 (ip), vehicle: saline) was 108 % of control, the T/C [4] was 102 % of control and the T/C [5] was 93 % of control. For the same compound, the T/C [15] was 96 % of control.

With `COc1cc2cc3c4ccccc4cc[n+]3c(C)c2cc1OC` (tested in a mixture with another compound) the T/C (dose: 2.5 mg/kg/injection, schedule: Q01DX009 (ip), vehicle: saline) was 102 % of control, the T/C (dose: 5.0 mg/kg/injection, schedule: Q01DX009 (ip), vehicle: saline) was 110 % of control and the T/C (dose: 10.0 mg/kg/injection, schedule: Q01DX009 (ip), vehicle: saline) was 115 % of control. For the same compound, the T/C (dose: 20.0 mg/kg/injection, schedule: Q01DX009 (ip), vehicle: saline) was 121 % of control and the T/C (dose: 40.0 mg/kg/injection, schedule: Q01DX009 (ip), vehicle: saline) was 118 % of control.

For `CC(=O)Nc1cc2ccc3ccccc3c2c2ccccc12`, the T/C (dose: 75.0 mg/kg/injection, schedule: Q04DX002 (ip), vehicle: Klucel (hydroxypropylcellulose) (HPC)) was 102 % of control, the T/C (dose: 150.0 mg/kg/injection, schedule: Q04DX002 (ip), vehicle: Klucel (hydroxypropylcellulose) (HPC)) was 97 % of control and the T/C (dose: 300.0 mg/kg/injection, schedule: Q04DX002 (ip), vehicle: Klucel (hydroxypropylcellulose) (HPC)) was 97 % of control.

`COC(=O)C(CC(C)C)NC(=O)C(CSCc1ccccc1)NC(=O)OCc1ccccc1` (configuration not stated) (Cbz-Cys(Bn)-Leu-OMe; configuration not given here) was tested, and the T/C (dose: 100.0 mg/kg/injection, schedule: Q04DX003 (ip), vehicle: DMSO) was 102 % of control, the T/C (dose: 200.0 mg/kg/injection, schedule: Q04DX003 (ip), vehicle: DMSO) was 104 % of control and the T/C (dose: 400.0 mg/kg/injection, schedule: Q04DX003 (ip), vehicle: DMSO) was 96 % of control.

In the case of `O=C(COc1ccc(Cl)c(Cl)c1)NCc1ccc[n+](Cc2ccc(S(=O)(=O)F)cc2)c1`, the T/C (dose: 25.0 mg/kg/injection, schedule: Q04DX003 (ip), vehicle: Klucel (hydroxypropylcellulose) (HPC)) was 106 % of control, the T/C (dose: 50.0 mg/kg/injection, schedule: Q04DX003 (ip), vehicle: Klucel (hydroxypropylcellulose) (HPC)) was 101 % of control and the T/C (dose: 100.0 mg/kg/injection, schedule: Q04DX003 (ip), vehicle: Klucel (hydroxypropylcellulose) (HPC)) was 94 % of control and 101 % of control.
